From ChEMBL document CHEMBL1201862, “PubChem BioAssay data set” (2004)
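Grown in 96-well plates, cells were treated for 48 hours with each compound at five concentrations. Insufficient inhibition: endpoint recorded as highest concentration tested. GI50 marks 50% less growth.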 Activity calls are given as the source filed them. Rule as the data show it: active = GI50 up to about 1.1 µM and inactive = higher.

What was measured:
Assay in all cases: NCI tumour cell line growth inhibition, 48 h
[1] = tested on: A549
[2] = tested on: DU-145
[3] = tested on: SF-295
[4] = tested on: MDA-MB-231
[5] = tested on: NCI-H226
[6] = tested on: HOP-62
[7] = tested on: UO-31
[8] = tested on: SF-268
[9] = tested on: OVCAR-5
[10] = tested on: T47D
[11] = tested on: SK-MEL-28
[12] = tested on: CAKI-1
[13] = tested on: HOP-92
[14] = tested on: SK-MEL-5
[15] = tested on: 786-0
[16] = tested on: SNB-75
[17] = tested on: NCI-H522
[18] = tested on: HCC 2998
[19] = tested on: SR
[20] = tested on: M14
[21] = tested on: SN12C
[22] = tested on: SF-539
[23] = tested on: NCI-H23
[24] = tested on: OVCAR-3
[25] = tested on: NCI-H460
[26] = tested on: SK-OV-3
[27] = tested on: HT-29
[28] = tested on: HCT-15
[29] = tested on: RXF 393
[30] = tested on: ACHN
[31] = tested on: K562
[32] = tested on: BT-549
[33] = tested on: KM12
[34] = tested on: UACC-62
[35] = tested on: TK-10
[36] = tested on: CCRF-CEM
[37] = tested on: HL-60
[38] = tested on: U-251
[39] = tested on: Hs-578T
[40] = tested on: A498
[41] = tested on: UACC-257
[42] = tested on: Malme-3M
[43] = tested on: LOX IMVI
[44] = tested on: COLO 205
[45] = tested on: HCT-116
[46] = tested on: SW-620
[47] = tested on: MDA-MB-435
[48] = tested on: SNB-19
[49] = tested on: IGROV-1
[50] = tested on: OVCAR-8
[51] = tested on: PC-3
[52] = tested on: EKVX
[53] = tested on: MDA-N
[54] = tested on: SK-MEL-2
[55] = tested on: MOLT-4
[56] = tested on: RPMI-8226
[57] = tested on: MCF7
[58] = tested on: OVCAR-4
[59] = tested on: NCI/ADR-RES

Q: `CC1C(c2ccccc2O)c2cc3c(cc2OC1N1CCCC1)OCO3` (centres undefined) was tested. Which GI50 [1] did it give?
A: The GI50 was 31 µM (inactive).

Q: What about the GI50 [2] of the same compound?
A: The GI50 was 45.1 µM (inactive).

Q: What about the GI50 [3] of the same compound?
A: Its GI50 is 27.2 µM (inactive).

Q: What about the GI50 [4] of the same compound?
A: The GI50 was 27.8 µM (inactive).

Q: What about the GI50 [5] of the same compound?
A: Its GI50 is 27.9 µM (inactive).

Q: What about the GI50 [6] of the same compound?
A: Its GI50 is 21.4 µM (inactive).

Q: What about the GI50 [7] of the same compound?
A: Its GI50 is 31.6 µM (inactive).

Q: And the GI50 [8]?
A: The GI50 was 33.3 µM (inactive).

Q: What about the GI50 [9] of the same compound?
A: Its GI50 is 32.2 µM (inactive).

Q: And the GI50 [10]?
A: The GI50 was 34.7 µM (inactive).

Q: And the GI50 [11]?
A: The GI50 was 20.4 µM (inactive).

Q: And the GI50 [12]?
A: Its GI50 is 34.7 µM (inactive).

Q: And the GI50 [13]?
A: The GI50 was 19.8 µM (inactive).

Q: And the GI50 [14]?
A: Its GI50 is 39.2 µM (inactive).

Q: What about the GI50 [15] of the same compound?
A: Its GI50 is 20 µM (inactive).

Q: And the GI50 [16]?
A: The GI50 was 22.2 µM (inactive).

Q: What about the GI50 [17] of the same compound?
A: The GI50 was 23.2 µM (inactive).

Q: What about the GI50 [18] of the same compound?
A: Its GI50 is 40.6 µM (inactive).

Q: And the GI50 [19]?
A: Its GI50 is 18.8 µM (inactive).

Q: What about the GI50 [20] of the same compound?
A: Its GI50 is 17.9 µM (inactive).

Q: What about the GI50 [21] of the same compound?
A: Its GI50 is 19.4 µM (inactive).

Q: And the GI50 [22]?
A: The GI50 was 24.9 µM (inactive).

Q: And the GI50 [23]?
A: Its GI50 is 39 µM (inactive).

Q: And the GI50 [24]?
A: Its GI50 is 20.9 µM (inactive).

Q: What about the GI50 [25] of the same compound?
A: Its GI50 is 16.1 µM (inactive).

Q: And the GI50 [26]?
A: Its GI50 is 88.7 µM (inactive).

Q: And the GI50 [27]?
A: The GI50 was 17.1 µM (inactive).

Q: And the GI50 [28]?
A: The GI50 was 19.8 µM.

Q: What about the GI50 [29] of the same compound?
A: The GI50 was 13.7 µM (inactive).

Q: And the GI50 [30]?
A: Its GI50 is 32.7 µM (inactive).

Q: What about the GI50 [31] of the same compound?
A: The GI50 was 20 µM (inactive).

Q: What about the GI50 [32] of the same compound?
A: Its GI50 is 32.3 µM (inactive).

Q: And the GI50 [33]?
A: The GI50 was 33.5 µM (inactive).

Q: And the GI50 [34]?
A: The GI50 was 35.5 µM (inactive).

Q: What about the GI50 [35] of the same compound?
A: The GI50 was 39.2 µM (inactive).

Q: And the GI50 [36]?
A: Its GI50 is 23.8 µM (inactive).

Q: And the GI50 [37]?
A: Its GI50 is 19.2 µM (inactive).

Q: What about the GI50 [38] of the same compound?
A: The GI50 was 31.7 µM (inactive).

Q: And the GI50 [39]?
A: The GI50 was 18.2 µM (inactive).

Q: What about the GI50 [40] of the same compound?
A: The GI50 was 23.2 µM (inactive).

Q: And the GI50 [41]?
A: Its GI50 is 25.1 µM (inactive).

Q: And the GI50 [42]?
A: The GI50 was 25.3 µM (inactive).

Q: What about the GI50 [43] of the same compound?
A: The GI50 was 18.4 µM (inactive).

Q: What about the GI50 [44] of the same compound?
A: The GI50 was 23.3 µM (inactive).

Q: And the GI50 [45]?
A: Its GI50 is 19.5 µM (inactive).

Q: And the GI50 [46]?
A: The GI50 was 20.8 µM (inactive).

Q: What about the GI50 [47] of the same compound?
A: Its GI50 is 26.9 µM (inactive).

Q: What about the GI50 [48] of the same compound?
A: The GI50 was 49.4 µM (inactive).

Q: And the GI50 [49]?
A: Its GI50 is 39.3 µM (inactive).

Q: And the GI50 [50]?
A: The GI50 was 11.5 µM (inactive).

Q: What about the GI50 [51] of the same compound?
A: Its GI50 is 28.1 µM (inactive).

Q: What about the GI50 [52] of the same compound?
A: The GI50 was 41.9 µM (inactive).

Q: What about the GI50 [53] of the same compound?
A: The GI50 was 18.8 µM (inactive).

Q: What about the GI50 [54] of the same compound?
A: The GI50 was 23.4 µM (inactive).

Q: And the GI50 [55]?
A: Its GI50 is 19.6 µM (inactive).

Q: And the GI50 [56]?
A: Its GI50 is 24.5 µM (inactive).

Q: And the GI50 [57]?
A: Its GI50 is 26.5 µM (inactive).

Q: How did the GI50 [2] turn out when `Cc1ccc(S(=O)(=O)n2cc(/C=C/C#N)c(-c3cn(S(=O)(=O)c4ccc(C)cc4)cc3-c3cn(S(=O)(=O)c4ccc(C)cc4)cc3/C=C/C#N)c2)cc1` was run?
A: The GI50 was > 100 µM (inactive).

Q: And the GI50 [3]?
A: Its GI50 is 44.8 µM (inactive).

Q: What about the GI50 [4] of the same compound?
A: The GI50 was 18.5 µM (inactive).

Q: What about the GI50 [5] of the same compound?
A: The GI50 was > 100 µM (inactive).

Q: What about the GI50 [6] of the same compound?
A: Its GI50 is > 100 µM (inactive).

Q: And the GI50 [7]?
A: The GI50 was 38.4 µM (inactive).

Q: And the GI50 [8]?
A: The GI50 was > 100 µM (inactive).

Q: And the GI50 [9]?
A: Its GI50 is > 100 µM (inactive).

Q: And the GI50 [58]?
A: Its GI50 is > 100 µM (inactive).

Q: And the GI50 [10]?
A: Its GI50 is > 100 µM (inactive).

Q: And the GI50 [59]?
A: The GI50 was > 100 µM (inactive).

Q: What about the GI50 [12] of the same compound?
A: Its GI50 is > 100 µM (inactive).

Q: What about the GI50 [13] of the same compound?
A: The GI50 was 43.6 µM (inactive).

Q: What about the GI50 [14] of the same compound?
A: The GI50 was > 100 µM (inactive).

Q: What about the GI50 [15] of the same compound?
A: The GI50 was > 100 µM (inactive).

Q: What about the GI50 [16] of the same compound?
A: The GI50 was > 100 µM (inactive).

Q: And the GI50 [17]?
A: Its GI50 is > 100 µM (inactive).

Q: And the GI50 [19]?
A: Its GI50 is > 100 µM (inactive).

Q: What about the GI50 [20] of the same compound?
A: Its GI50 is 47 µM (inactive).

Q: And the GI50 [21]?
A: Its GI50 is > 100 µM (inactive).

Q: What about the GI50 [23] of the same compound?
A: The GI50 was 87.7 µM (inactive).

Q: And the GI50 [24]?
A: The GI50 was > 100 µM (inactive).

Q: And the GI50 [26]?
A: The GI50 was > 100 µM (inactive).

Q: And the GI50 [27]?
A: Its GI50 is > 100 µM (inactive).

Q: What about the GI50 [28] of the same compound?
A: The GI50 was > 100 µM.

Q: What about the GI50 [30] of the same compound?
A: Its GI50 is > 100 µM (inactive).

Q: What about the GI50 [31] of the same compound?
A: Its GI50 is 57.4 µM (inactive).

Q: What about the GI50 [32] of the same compound?
A: Its GI50 is > 100 µM (inactive).

Q: And the GI50 [33]?
A: The GI50 was 91.6 µM (inactive).

Q: What about the GI50 [34] of the same compound?
A: The GI50 was > 100 µM (inactive).

Q: And the GI50 [35]?
A: The GI50 was 40.4 µM (inactive).

Q: What about the GI50 [39] of the same compound?
A: The GI50 was 90.2 µM (inactive).

Q: What about the GI50 [40] of the same compound?
A: The GI50 was > 100 µM (inactive).

Q: What about the GI50 [41] of the same compound?
A: Its GI50 is > 100 µM (inactive).

Q: What about the GI50 [42] of the same compound?
A: The GI50 was > 100 µM (inactive).

Q: And the GI50 [43]?
A: Its GI50 is 93.8 µM (inactive).

Q: What about the GI50 [44] of the same compound?
A: Its GI50 is 58.7 µM (inactive).

Q: And the GI50 [45]?
A: Its GI50 is > 100 µM (inactive).

Q: And the GI50 [47]?
A: The GI50 was > 100 µM (inactive).

Q: What about the GI50 [48] of the same compound?
A: Its GI50 is > 100 µM (inactive).

Q: What about the GI50 [49] of the same compound?
A: Its GI50 is > 100 µM (inactive).

Q: And the GI50 [50]?
A: Its GI50 is > 100 µM (inactive).

Q: And the GI50 [51]?
A: Its GI50 is 94.2 µM (inactive).

Q: And the GI50 [52]?
A: Its GI50 is > 100 µM (inactive).

Q: And the GI50 [53]?
A: Its GI50 is > 100 µM (inactive).

Q: What about the GI50 [54] of the same compound?
A: The GI50 was > 100 µM (inactive).

Q: What about the GI50 [56] of the same compound?
A: The GI50 was 17.4 µM (inactive).
